How the values were obtained:
Full length human TBK1 = Full length human TBK1 (Homo sapiens (Human), UniProt Q9UHD2); test: Inhibition of TBK1 Enzyme (Example A); assay type: biochemical; details: -log(IC50), IC50 molar, 3 nM TBK1, 25 μM ATP, 60 min RT
Procedure, shortened: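 Full-length N-His human TBK1 from Sf9 baculovirus was tested with 11-point 2.5-fold dilutions (1% DMSO) in Hepes pH 7.4, MgCl2, EDTA, Brij, DTT. After 60 min RT and EDTA quench, microfluidic conversion was fitted and reported as pIC50.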

C57/BL6 mice = test: Inhibition of ConA Induced Hepatitis (Example B); assay type: in vivo; details: Mus musculus; oral, 1 hr before ConA 15 mg/kg i.v.; plasma ALT post 8-24 hrs; read-out: ED50 (amount of test compound that reduces ConA induced increase in plasma ALT level by 50%)
Experimental: Orally administer compound into normal C57/BL6 mice at several doses. After 1 hr, inject i.v. with ConA 15 mg/kg, (N=5). Post 8-24 hrs, collect plasma and liver. Measure plasma ALT enzyme level. An ED50 is determined as the amount of test compound that reduces ConA induced increase in plasma ALT level by 50%.

Sequence of Full length human TBK1 (Q9UHD2 whole entry): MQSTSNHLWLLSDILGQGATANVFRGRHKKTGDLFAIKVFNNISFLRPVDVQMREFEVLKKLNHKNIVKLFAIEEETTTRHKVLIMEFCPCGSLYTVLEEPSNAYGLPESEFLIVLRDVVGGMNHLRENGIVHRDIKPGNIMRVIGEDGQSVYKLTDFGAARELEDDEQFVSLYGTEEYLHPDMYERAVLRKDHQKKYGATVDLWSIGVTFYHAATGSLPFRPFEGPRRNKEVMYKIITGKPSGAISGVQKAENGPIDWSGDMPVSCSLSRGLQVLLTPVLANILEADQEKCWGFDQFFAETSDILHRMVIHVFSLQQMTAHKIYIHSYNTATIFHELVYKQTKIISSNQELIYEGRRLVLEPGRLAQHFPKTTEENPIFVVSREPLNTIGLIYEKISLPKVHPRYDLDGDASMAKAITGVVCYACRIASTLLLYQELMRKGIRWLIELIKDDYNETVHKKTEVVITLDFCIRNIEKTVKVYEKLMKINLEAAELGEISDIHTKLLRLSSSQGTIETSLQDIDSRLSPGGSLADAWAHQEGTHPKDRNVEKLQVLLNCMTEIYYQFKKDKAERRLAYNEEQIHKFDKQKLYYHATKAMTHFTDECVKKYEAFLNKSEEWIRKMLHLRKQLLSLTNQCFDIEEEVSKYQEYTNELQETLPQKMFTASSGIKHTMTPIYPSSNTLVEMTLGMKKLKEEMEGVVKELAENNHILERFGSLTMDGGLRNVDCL

C[C@H](Nc1cc(-c2cnc(NC(=O)C3CC3)cn2)ccc1C#N)C(=O)N(C)C [Example 1, (S)-N-(5-(4-cyano-3-((1-(dimethylamino)-1-oxopropan-2-yl)amino)phenyl)pyrazin-2-yl)cyclopropanecarboxamide]
TBK1 Inhibition (pIC50) (Full length human TBK1): 8.1
ED50 (C57/BL6 mice): 5 mg/kg

CC(O)CN(C)C(=O)CNc1cc(-c2cnc(NC(=O)C3CC3)cn2)ccc1C#N (centres unmarked) [Example 134, N-(5-(4-cyano-3-((2-((2-hydroxypropyl)(methyl)amino)-2-oxoethyl)amino)phenyl)pyrazin-2-yl)cyclopropanecarboxamide]
TBK1 Inhibition (pIC50) (Full length human TBK1): 6.9

CN(C)C(=O)[C@H](CO)Nc1cc(-c2cnc(NC(=O)C3CC3)cn2)ccc1C#N [Example 136, (S)-N-(5-(4-cyano-3-((1-(dimethylamino)-3-hydroxy-1-oxopropan-2-yl)amino)phenyl)pyrazin-2-yl)cyclopropanecarboxamide]
TBK1 Inhibition (pIC50) (Full length human TBK1): 7.6

C[C@H](Nc1cc(-c2cnc(NC(=O)C3CC3)cn2)cc(F)c1C#N)C(=O)N(C)C [Example 137, (S)-N-(5-(4-cyano-3-((1-(dimethylamino)-1-oxopropan-2-yl)amino)-5-fluorophenyl)pyrazin-2-yl)cyclopropanecarboxamide]
TBK1 Inhibition (pIC50) (Full length human TBK1): 7.6

CN(C)C(=O)C(CC(F)(F)F)Nc1cc(-c2cnc(NC(=O)C3CC3)cn2)cnc1C#N (centres unmarked) [Example 138, N-(5-(6-cyano-5-((1-(dimethylamino)-4,4,4-trifluoro-1-oxobutan-2-yl)amino)pyridin-3-yl)pyrazin-2-yl)cyclopropanecarboxamide]
TBK1 Inhibition (pIC50) (Full length human TBK1): 6.2

C[C@H](Nc1cc(-c2cnc(NC(=O)C3CC3)cn2)cnc1C#N)C(=O)N1CC[C@H](F)C1 [Example 139, N-(5-(6-cyano-5-(((S)-1-((S)-3-fluoropyrrolidin-1-yl)-1-oxopropan-2-yl)amino)pyridin-3-yl)pyrazin-2-yl)cyclopropanecarboxamide]
TBK1 Inhibition (pIC50) (Full length human TBK1): 7.7

N#Cc1ncc(-c2cnc(NC(=O)C3CC3)cn2)cc1NCC(=O)N1CCS(=O)(=O)C1 [Example 140, N-(5-(6-cyano-5-((2-(1,1-dioxidothiazolidin-3-yl)-2-oxoethyl)amino)pyridin-3-yl)pyrazin-2-yl)cyclopropanecarboxamide]
TBK1 Inhibition (pIC50) (Full length human TBK1): 7.0

N#Cc1ncc(-c2cnc(NC(=O)C3CC3)cn2)cc1NCC(=O)N1CCC[C@@H]1C(F)F [Example 141, (R)-N-(5-(6-cyano-5-((2-(2-(difluoromethyl)pyrrolidin-1-yl)-2-oxoethyl)amino)pyridin-3-yl)pyrazin-2-yl)cyclopropanecarboxamide]
TBK1 Inhibition (pIC50) (Full length human TBK1): 8.3

N#Cc1ncc(-c2cnc(NC(=O)C3CC3)cn2)cc1NCC(=O)N1CCCC1CF (centres unmarked) [Example 143, N-(5-(6-cyano-5-((2-(2-(fluoromethyl)pyrrolidin-1-yl)-2-oxoethyl)amino)pyridin-3-yl)pyrazin-2-yl)cyclopropanecarboxamide]
TBK1 Inhibition (pIC50) (Full length human TBK1): 7.0

CC1CC1C(=O)Nc1cnc(-c2cnc(C#N)c(NCC(N)=O)c2)cn1 (centres unmarked) [Example 144, N-(5-(5-((2-amino-2-oxoethyl)amino)-6-cyanopyridin-3-yl)pyrazin-2-yl)-2-methylcyclopropanecarboxamide]
TBK1 Inhibition (pIC50) (Full length human TBK1): 5.6

CC1CC1C(=O)Nc1cnc(-c2cnc(C#N)c(NCC(=O)N(C)C)c2)cn1 (centres unmarked) [Example 145, N-(5-(6-cyano-5-((2-(dimethylamino)-2-oxoethyl)amino)pyridin-3-yl)pyrazin-2-yl)-2-methylcyclopropanecarboxamide]
TBK1 Inhibition (pIC50) (Full length human TBK1): 7.1

C[C@H](Nc1cc(-c2cnc(NC(=O)C3CC3CO)cn2)cnc1C#N)C(=O)N(C)CC(F)F (stereo partly drawn) [Example 146, N-(5-(6-cyano-5-(((S)-1-((2,2-difluoroethyl)(methyl)amino)-1-oxopropan-2-yl)amino)pyridin-3-yl)pyrazin-2-yl)-2-(hydroxymethyl)cyclopropanecarboxamide]
TBK1 Inhibition (pIC50) (Full length human TBK1): 8.1

CC[C@H](Nc1cc(-c2cnc(NC(=O)C3CC(C)(O)C3)cn2)cnc1C#N)C(=O)N(C)C (stereo partly drawn) [Example 147, (S)-N-(5-(6-cyano-5-((1-(dimethylamino)-1-oxobutan-2-yl)amino)pyridin-3-yl)pyrazin-2-yl)-3-hydroxy-3-methylcyclobutanecarboxamide]
IC50 (Full length human TBK1; read-out: TBK1 Inhibition (pIC50) (converted)): 398 nM

— US9994547B2, “Heteroarylamide inhibitors of TBK1” (Takeda Pharmaceutical Company Limited, priority 2014, dated 2018)
